Molecular target: Cytochrome P450 2C9 (Homo sapiens, UniProt P11712)
Assay: Inhibition of recombinant CYP2C9 by fluorescence inhibition assay
Format: ADME

Sequence of Cytochrome P450 2C9 (P11712 whole entry): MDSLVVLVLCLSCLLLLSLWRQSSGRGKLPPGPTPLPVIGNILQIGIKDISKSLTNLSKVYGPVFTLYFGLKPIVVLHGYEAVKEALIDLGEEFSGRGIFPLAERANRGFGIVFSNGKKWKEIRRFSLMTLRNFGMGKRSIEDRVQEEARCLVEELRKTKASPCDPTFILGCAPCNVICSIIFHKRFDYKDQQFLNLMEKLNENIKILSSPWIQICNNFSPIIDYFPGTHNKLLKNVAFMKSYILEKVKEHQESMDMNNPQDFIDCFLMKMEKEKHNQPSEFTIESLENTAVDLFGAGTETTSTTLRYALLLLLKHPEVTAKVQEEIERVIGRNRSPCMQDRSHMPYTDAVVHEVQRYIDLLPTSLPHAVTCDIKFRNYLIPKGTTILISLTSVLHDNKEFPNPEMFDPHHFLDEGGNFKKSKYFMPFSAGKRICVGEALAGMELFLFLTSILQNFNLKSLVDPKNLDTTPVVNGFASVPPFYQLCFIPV

| SMILES | IC50 [µM] |
| --- | --- |
| CCOC(=O)c1ccc(-n2nc(C(F)(F)F)cc2-c2ccc(C(F)(F)F)cc2)cc1 | > 40 |
| Cc1ccc(-c2cc(C(F)(F)F)nn2-c2ccc(C(=O)O)cc2)cc1 | > 40 |
| NS(=O)(=O)c1ccc(-n2nc(C(F)(F)F)cc2-c2ccc(C(F)(F)F)cc2)cc1 | 17 |
| O=C(O)Cc1ccc(-n2nc(C(F)(F)F)cc2-c2ccc(C(F)(F)F)cc2)cc1 | 25 |
| CSc1ccc(-n2nc(C(F)(F)F)cc2-c2ccc(C)cc2)cc1 | > 40 |
| Cc1ccc(-c2cc(C(F)(F)F)nn2-c2ccc(S(C)(=O)=O)cc2)cc1 | 16 |
| Cc1ccc(-c2cc(C(F)(F)F)nn2-c2ccc(C)cc2)cc1 | > 40 |
| CCOC(=O)c1ccc(-n2nc(C(F)(F)F)cc2-c2ccc(C)cc2)cc1 | > 40 |
| Cc1ccc(-c2cc(C(=O)O)nn2-c2ccc(S(N)(=O)=O)cc2)cc1 | > 40 |
| Cc1ccc(-c2cc(-c3ccccc3)nn2-c2ccc(S(N)(=O)=O)cc2)cc1 | 16 |
| Cc1ccc(-c2cc(C(F)(F)F)nn2-c2ccc(CC(=O)O)cc2)cc1 | > 40 |
| Cc1ccc(-c2cc(C(F)(F)F)nn2-c2ccc([S+](C)[O-])cc2)cc1 (centres undefined) | 26 |
| O=C(O)c1ccc(-n2nc(C(F)(F)F)cc2-c2ccc(C(F)(F)F)cc2)cc1 | > 40 |
| Cc1ccc(-c2cc(C(F)(F)F)nn2-c2ccc(S(N)(=O)=O)cc2)cc1 [CELECOXIB] | 10 |

Reference: ChEMBL document CHEMBL1137572, “CYP2C9 structure-metabolism relationships: substrates, inhibitors, and metabolites” (J Med Chem, 2007)
